Holding throughout (assay type): cell-based
For assay [1], the system named is colon adenocarcinoma cell lines (Caco-2, HCT15, HCT116, LoVo, HT29). Description: Binding and overnight release/retention of 32P-labeled decapeptide. The settings on record: two-hour incubation. The method, then: (§1) Assay of the binding of ^32P-labeled decapeptides to cell lines: Cell lines were grown in complete medium containing 10% bovine fetal serum (heat inactivated). In each well of a 96-well plate, 10,000 cells from various cell lines were grown overnight in complete medium. Ten μl of the labeled-peptide in 1×PBS and 90 μl of complete medium were added to each well and incubated at 37° C. at various times of up to two hours. The peptide-medium was removed and one μl added to 100 ul gel loading buffer and counted by scintillation counting for the probe control or run on a polyacrylamide-SDS gel (Biorad). The adherent cells were briefly and gently washed with complete medium three times and some wells were assayed immediately by adding 100 μl of gel loading buffer to each well and run on a gel or counted in a scintillation counter. Other wells had 100 μl complete medium added and incubated for a further time period. Samples were either counted in a liquid scintillation counter or run on polyacrylamide-SDS gels, exposed to x-ray film, and the film developed.

In assay [2] the test system is human embryonic kidney cell line 293H. Description: Binding of 32P-labeled decapeptides to cell lines. To be noted: two-hour incubation, washes. The method, then: as §1
Assay [3] deals with HT1080 fibrosarcoma cells. The assay can be described thus: Binding of 32P-labeled decapeptides to cell lines. The settings on record: two-hour incubation, washes. The method, then:
as §1

Assay [4] deals with HeLa S3 cervical cancer cells. The assay can be described thus: Binding of 32P-labeled decapeptides to cell lines. To be noted: two-hour incubation, washes; average. The method, then: as §1
For assay [5], the system named is HCT116 colon adenocarcinoma cells. Description: Binding of 32P-labeled decapeptides to cell lines. To be noted: two-hour incubation, washes; average. The method, then: as §1
For assay [6], the system named is eleven nonbinding cell lines. The assay can be described thus: Binding of 32P-labeled decapeptides to cell lines. The method, then: as §1
The test system of assay [7] is Caco-2 colon adenocarcinoma cell line. The assay can be described thus: Binding of 32P-labeled decapeptides to cell lines. The method, then:
as §1

Where [8] appears, read: two hours incubation, three wash steps, overnight incubation in medium.

As to “GSRRASVASA (synthetic or recombinant sequence) [MA5]”, the “retention of radioactivity (in words)” value in assay [1] (five of sixteen cell lines) is on record as “very strong retention of radioactivity”. Moreover, the “initially retained radioactive counts retained by cells” value in assay [1] (washes, overnight incubation) was “approximately 12%”. The “32P counts per minute (cpm) remaining bound” value in assay [2] is listed as 429 cpm per 10,000 cells; in assay [3] it was 367 cpm; in assay [4], 534 cpm per 10,000; in assay [5], 131,998 cpm per 10,000 cells; in assay [7] (two-hour incubation, washes with complete medium, average of triplicate wells), 298,639 cpm per 10,000 cells. For the same sequence, in assay [6] (two-hour incubation, 10,000 cells, washed three times), the “average cpm of the eleven nonbinding cell lines” value was determined as 365 cpm. For the same sequence, in assay [6] (two-hour incubation, washes), the “mean cpm values of blank wells and nonbinding cell lines” value is given as “less than 550 cpm”. The “retained counts per hour per cell” value in assay [7] (after overnight incubation) was 348 counts per hour, per cell. Also, the “retained counts extrapolated per cell per day” value in assay [7] (after overnight incubation, extrapolated) is “over 8,300 counts per cell per day”. Also, the “percentage of the total radioactive counts present in the incubation well retained by cells” value in assay [7] (after two-hour incubation) is “approximately 18%”. The “time to plateau of 32P-peptide release into medium” value in assay [7] (after washing) is no more than 24 h. In addition, the “retained counts per cell extrapolated over a potential 2-week exposure period” value in assay [7] (extrapolated over 2 weeks) is “over 87,000 counts per cell”. The “time by which the majority of total released counts are released” value in assay [7] (release after washing over a 48-hour time period) was “released by nine hours of incubation”. In addition, the “cpm retained by cells after overnight incubation” value in assay [7] (triplicate wells containing 10,000 cells each, three washes, overnight at 37 C) is 58,305 cpm. Further, in assay [7] (two hour incubation), the “relative binding among decapeptides (in words)” value is recorded as “most efficient binding decapeptide”. Further, the “radioactive dose transferred per cell” value in assay [7] (two hour incubation, wash, immediate determination of retained radioactivity) was “over 29 counts per minute per cell”. In addition, in assay [7] (setting [8]), the “originally retained 32P isotope released” value came to 88%. Besides, the “originally retained 32P isotope retained by cells” value in assay [7] (setting [8]) was 12%. Besides, the “retention difference between decapeptide variants” value in assay [7] (two hours' incubation, variant MA2 vs. variant MA5) is reported as 70 fold.

Values taken from patent publication US20130209359A1, “Small Peptides Specifically Bind to Colorectal Cancers” (The Johns Hopkins University, priority 2007, published 2013).
